Like-named read-outs stand apart in the source and are kept apart here.
Experiments:
Cytochrome C [1] = assay: Cytochrome C Western blot, CML cell cytosol; format: cell-based, human; conditions: K562, KYO.1, Lama 84; 16 hour treatment
Description: (§1) Cells (15×10^6) were harvested by centrifugation at 1800 g for 10 min at 4° C. After being washed once with ice-cold phosphate-buffered saline, the cell pellet was suspended in 100 μl of ice-cold buffer A (20 mM Hepes, pH 7.5, 10 mM KCl, 1.5 mM MgCl2, 1 mM sodium EDTA, 1 mM sodium EGTA, 1 mM dithiotreitol and 0.1 mM phenylmethylsulfonyl fluoride) supplemented with protease inhibitors (5 μg/ml pepstatin A, 10 μg/ml leupeptin and 2 μg/ml of aprotinin). The cells were left to sit on ice for 15 min and then centrifuged at 20,000 g for 20 min. The resulting supernatant was stored at −70° C. until measurement of cytochrome C. Protein determination was measured by using the Bradford assay. Equal amounts of protein were resolved by SDS-polyacrylamide gel electrophoresis in 15% gels and transferred onto nitro-cellulose. Membranes were blocked with phosphate-buffered saline/5% (w/v) dry milk and probed with anti-cytochrome C antibody. Blots were washed, incubated with goat anti-mouse IgG peroxidase conjugate and developed by ECL according to the manufacturer's recommendations.

Cytochrome C [2] = assay: Cytochrome C Western blot, HL-60 cytosol; format: cell-based, human; conditions: HL-60 cells
Description: as §1

MCF-7 cells = assay: Apoptosis in MCF-7 cells; format: cell-based, human
Description: MCF-7 cells were maintained in minimum essential medium supplemented with non-essential amino acids (1% v/v), glutamine (1 mM), FCS (10%) and sub-cultured by the protocol described for Hela cells.
In all experiments performed, cells were seeded at a density of 3×10^5 cells/ml into 24-well plates (1 ml well) and immediately treated with the indicated compound. All drugs were diluted from freshly prepared ethanol stock solutions. The final concentration of ethanol in the wells was always 1% (vol/vol); a concentration which by itself had no effect on the cells tested. Following exposure to the appropriate drug, the cells (100 μL) were cytospun onto glass slides pre-coated with poly-L-lysine using a Cytospin 3™ cytocentrifuige (Shandon). They were then stained using the Rapi-Diff kit (eosinm ethylene blue) under the conditions described by the manufacturer. The percent apoptosis and necrosis was determined by counting approximately 300 cells under a light microscope with the aid of a graticule inserted into the eyepiece. At least 3 fields of view per slide, with an average of approximately 100 cells per field, were counted.

JNK1 and JNK2 [3] = assay: Western blot of JNK activation in HL-60 cells; format: cell-based, human
[4] = molecular target: T1, peripheral-type benzodiazepine receptor (PBR) (Homo sapiens, UniProt P30536); assay: Radioligand binding assay, inhibition of [^3H]PK 11195 binding to HL-60 homogenates; conditions: HL-60 homogenates, 2 nM [^3H]PK 11195; mean±SEM; read-out: Inhibition of [^3H]PK 11195 binding to the PBR, Ki value
T1 construct: Cell homogenates (50 μg protein) were incubated with 0.5-50 nM [^3H]; PK 11195; endogenous in cells; host or cells: HL-60 cell homogenate
T1 sequence (P30536 whole entry): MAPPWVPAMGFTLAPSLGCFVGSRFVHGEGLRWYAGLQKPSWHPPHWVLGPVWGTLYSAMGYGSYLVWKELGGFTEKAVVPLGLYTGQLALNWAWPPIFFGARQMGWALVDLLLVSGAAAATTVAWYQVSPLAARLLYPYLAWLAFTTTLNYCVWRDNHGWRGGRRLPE
Description: HL-60 cells were harvested by centrifugation at 600 g for 5 min and washing in phosphate-buffered saline. The resulting cell pellet was homogenised in 50 mM Tris/HCl buffer, pH 7.4 (2 ml), using an Ultraturrax homogeniser (10 sec) and then passed 5 times through a 21 gauge needle. Cell homogenates (50 μg protein) were incubated with 0.5-50 nM [^3H] PK 11195 in 50 mM Tris/HCl buffer, pH 7.4 (incubation buffer), in a total volume of 0.5 ml on ice. Total and non-specific/non-saturable binding in each case was determined in the absence and presence of 10 μM unlabelled PK 11195 respectively. All samples were incubated in triplicate for 60 min. The incubation mixtures were then filtered and counted as previously described (O'Beirne, et al., 1988). When testing the potency of a compound to inhibit [^3H] PK 11195 binding, samples were incubated with 2 nM [3H] PK 11195 and various concentrations (0.1 nM to 1 μM) of compound and subsequently treated exactly as above. The resulting Ki values were then generated by the use of the computer programs EBDA and LIGAND.
The amount of radioactivity bound in the presence of the displacer was expressed as a percentage of control bonding and the values represent the mean±SEM of triplicate determinations from one representative experiment performed at least twice. The Ki values were obtained as described in Methods section.

JNK1 and JNK2 [5] = format: cell-based, human; conditions: K562 cells
[6] = test system: tyrosine phosphorylated proteins; assay: Protein tyrosine phosphorylation Western blot, K562 cells; format: cell-based, human
Description: Jurkat and CML cells (5×10^6) were harvested by centrifuigation at 1800 g for 10 min at 4° C. After being washed once with ice-cold phosphate-buffered saline, the cell pellet was suspended in 100 μl of ice-cold lysis buffer (50 mM Tris-HCl, pH 8.0, 150 mM NaCl, 0.1%.SDS, 1% Triton X-100, 1 mM sodium 1 mM phenylmethylsulfonyl, 10 ng/ml leupeptin and 10 ng/ml of aprotinin). The cells were left to sit on ice for 10 min and then centrifuged at 20,000 g for 20 min. The resulting supernatant was stored at −70° C. until measurement of tyrosine phosphorylation. Protein determination was measured by using the Bradford assay. Equal amounts of protein were resolved by SDS-polyacrylamide gel electrophoresis in 15% gels and transferred onto polyvinylidene difluoride (PVDF) membranes. Membranes were blocked with Tris-buffered saline with Tween 20 (10 mM Tris-HCl, pH 8.0, 150 mM NaCl, 0.05% Tween 20) containing 1% w/v BSA and probed with anti-phosphotyrosine antibody. Blots were washed, incubated with goat anti-mouse IgG peroxidase conjugate and developed by ECL according to the manufacturer's recommendations.

CN(C)C(=O)OC1=C(c2cccc3ccccc23)Oc2ccccc2-n2cccc21 [PBOX-6, 7-((Dimethylcarbamoyl)oxy)-6-(1-naphthyl)pyrrolo[2,1-d][1,5]benzoxazepine]
cytochrome C levels in the cytosol (Cytochrome C [1]): unchanged | Cytochrome C in the cytosol (Cytochrome C [2]): accumulation of Cytochrome C in the cytosol | concentration at which morphological features of apoptosis were first observed (MCF-7 cells): 5 μM | activation of JNK (JNK1 and JNK2 [3]): transient activation of 2 JNK isoforms | time of peak JNK activation (JNK1 and JNK2 [3]): 1 h | Ki [4]: 6.7 ± 1.7 nM | time at which JNK activation first becomes visible (JNK1 and JNK2 [5]): 15 min | time of peak JNK activation (JNK1 and JNK2 [5]): 30 to 45 min | tyrosine phosphorylation status of proteins ([6]; K562, 5, 15 or 30 min): no effect | tyrosine phosphorylation status of proteins ([6]; K562, 16 hours, proteins approx 63 kDa and 71 kDa): increase in the phosphorylation of two proteins
